Measured values: ChEMBL document CHEMBL1128784, “Symmetry-based HIV Protease inhibitors: rational design of 2-methylbenzamides as novel P2/P2 ligands” (Bioorg Med Chem Lett, 1995)

Biological target: Human immunodeficiency virus type 1 protease (Human immunodeficiency virus 1, UniProt Q72874)
Assay: Inhibitory activity against HIV protease

| SMILES | Ki [nM] |
| --- | --- |
| Cc1c(N)cccc1C(=O)N[C@@H](Cc1ccccc1)[C@H](O)[C@H](O)[C@H](Cc1ccccc1)NC(=O)c1cccc(N)c1C | 2.5 |
| Cc1ccc(O)cc1C(=O)N[C@@H](Cc1ccccc1)[C@H](O)[C@H](O)[C@H](Cc1ccccc1)NC(=O)c1cc(O)ccc1C | 74 |
